In patent publication US9475815B2, “Substituted benzothienyl-pyrrolotriazines and uses thereof” (Bayer Intellectual Property GmbH, priority 2012, dated 2016):
pIC50: −log10 of the molar value. Counter-ions that a name gives are not always drawn.

Legend:
human FGFR-1 = human FGFR-1 (Homo sapiens, UniProt P11362); assay: FGFR-1 high ATP kinase assay (TR-FRET)
human mTOR = human mTOR (Homo sapiens (Human), UniProt P42345); assay: mTOR kinase assay (TR-FRET, for comparative purposes); assay type: biochemical; details: for inhibition at 1 µM: read-out: mTOR % inhibition @ 1 μM, 1 μM test compound, 40 μM ATP, mean values
Protocol: mTOR inhibitory activity of the compounds of the present invention was quantified employing the TR-FRET based mTOR assay as described in the following paragraphs:
Test compounds were dissolved in DMSO to generate 10 mM stock solutions. These solutions were first 10-fold diluted by 100% DMSO to get 1 mM solutions in 100% DMSO, then 100-fold diluted by 50% DMSO to get 10 μM solutions in 50% DMSO.
(final concentration in the 10 μl assay volume=1 nM) in FRET buffer.
For this, the fluorescence emissions at 495 nm and 520 nm after excitation at 340 nm was measured in an Envision 2104 multilabel reader (Perkin-Elmer).

human FGFR-3 = human FGFR-3 (Homo sapiens (Human), UniProt P22607); assay: FGFR-3 kinase assay (TR-FRET); assay type: biochemical; details: 10 μM ATP, 15 min pre-incubation with enzyme
human FGFR-3, sequence (P22607 397-806): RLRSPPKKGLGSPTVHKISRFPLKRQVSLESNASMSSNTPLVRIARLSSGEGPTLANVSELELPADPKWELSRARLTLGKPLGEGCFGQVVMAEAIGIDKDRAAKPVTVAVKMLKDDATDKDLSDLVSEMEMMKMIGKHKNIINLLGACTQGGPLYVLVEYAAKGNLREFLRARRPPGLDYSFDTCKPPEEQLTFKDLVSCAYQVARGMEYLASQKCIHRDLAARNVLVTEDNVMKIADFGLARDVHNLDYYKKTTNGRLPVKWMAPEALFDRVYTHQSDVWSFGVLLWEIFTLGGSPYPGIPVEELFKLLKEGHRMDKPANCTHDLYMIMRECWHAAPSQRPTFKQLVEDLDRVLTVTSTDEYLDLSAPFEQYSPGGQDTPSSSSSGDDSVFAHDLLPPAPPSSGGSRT

human FGFR-1, sequence (P11362 22-822 limits assumed): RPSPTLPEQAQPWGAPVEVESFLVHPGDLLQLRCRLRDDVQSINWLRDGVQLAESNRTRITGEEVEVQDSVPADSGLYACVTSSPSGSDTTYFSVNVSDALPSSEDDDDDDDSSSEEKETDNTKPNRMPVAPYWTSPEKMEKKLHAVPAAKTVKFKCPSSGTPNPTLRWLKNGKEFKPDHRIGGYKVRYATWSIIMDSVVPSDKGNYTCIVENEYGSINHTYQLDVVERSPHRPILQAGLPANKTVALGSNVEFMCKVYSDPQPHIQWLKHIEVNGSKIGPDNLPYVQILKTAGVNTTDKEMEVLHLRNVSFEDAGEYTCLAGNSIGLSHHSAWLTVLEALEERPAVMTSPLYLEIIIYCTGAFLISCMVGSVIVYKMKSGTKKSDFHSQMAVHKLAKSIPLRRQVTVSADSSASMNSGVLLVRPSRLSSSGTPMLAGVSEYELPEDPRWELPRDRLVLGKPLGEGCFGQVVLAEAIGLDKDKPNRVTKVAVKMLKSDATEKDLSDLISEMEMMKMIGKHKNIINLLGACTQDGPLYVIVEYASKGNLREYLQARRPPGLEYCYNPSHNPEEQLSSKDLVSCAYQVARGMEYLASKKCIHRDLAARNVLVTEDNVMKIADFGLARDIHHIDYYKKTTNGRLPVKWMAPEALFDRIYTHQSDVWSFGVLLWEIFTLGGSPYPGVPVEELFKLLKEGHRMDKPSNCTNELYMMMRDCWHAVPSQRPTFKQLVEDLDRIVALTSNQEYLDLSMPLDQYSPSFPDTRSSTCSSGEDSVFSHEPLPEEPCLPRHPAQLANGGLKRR
human mTOR, sequence (P42345 1360-2549): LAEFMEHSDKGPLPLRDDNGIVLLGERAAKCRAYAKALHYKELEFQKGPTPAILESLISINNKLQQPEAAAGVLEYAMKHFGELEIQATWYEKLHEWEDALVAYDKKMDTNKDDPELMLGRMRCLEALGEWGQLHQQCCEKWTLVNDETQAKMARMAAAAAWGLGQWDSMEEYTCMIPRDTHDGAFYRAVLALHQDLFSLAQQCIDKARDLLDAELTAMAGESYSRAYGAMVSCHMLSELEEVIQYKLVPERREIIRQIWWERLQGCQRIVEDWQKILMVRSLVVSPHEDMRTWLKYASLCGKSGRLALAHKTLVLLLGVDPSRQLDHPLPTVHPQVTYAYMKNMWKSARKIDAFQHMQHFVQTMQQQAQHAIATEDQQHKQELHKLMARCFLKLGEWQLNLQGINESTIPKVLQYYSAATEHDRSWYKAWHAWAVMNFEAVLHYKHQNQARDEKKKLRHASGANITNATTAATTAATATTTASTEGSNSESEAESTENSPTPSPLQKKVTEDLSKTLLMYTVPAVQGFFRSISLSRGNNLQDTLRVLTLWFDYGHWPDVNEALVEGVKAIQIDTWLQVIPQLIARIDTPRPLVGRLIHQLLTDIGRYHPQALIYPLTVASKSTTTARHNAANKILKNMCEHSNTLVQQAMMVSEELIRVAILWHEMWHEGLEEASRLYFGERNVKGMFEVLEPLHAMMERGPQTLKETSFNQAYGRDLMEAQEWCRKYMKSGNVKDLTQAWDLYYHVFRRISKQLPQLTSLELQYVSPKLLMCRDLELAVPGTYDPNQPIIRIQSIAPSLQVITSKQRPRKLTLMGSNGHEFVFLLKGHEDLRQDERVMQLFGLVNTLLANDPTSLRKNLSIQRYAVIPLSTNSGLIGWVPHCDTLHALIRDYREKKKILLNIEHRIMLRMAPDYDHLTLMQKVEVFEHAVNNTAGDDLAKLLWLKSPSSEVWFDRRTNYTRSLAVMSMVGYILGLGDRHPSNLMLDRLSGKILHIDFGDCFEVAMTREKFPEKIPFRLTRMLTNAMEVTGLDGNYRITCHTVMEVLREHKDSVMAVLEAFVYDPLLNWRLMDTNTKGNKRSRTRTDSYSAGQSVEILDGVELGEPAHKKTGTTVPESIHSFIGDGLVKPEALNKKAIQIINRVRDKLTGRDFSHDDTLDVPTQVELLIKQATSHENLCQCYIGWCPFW

Compound | pIC50 (human FGFR-1) | inhibition at 1 µM (human mTOR) | pIC50 (human FGFR-3) | mTOR % inhibition @ 1 μM (human mTOR; 1 μM test compound, 40 μM ATP, mean values)
COc1cccc2cc(-c3cc(CN4CCNCC4)n4ncnc(N)c34)sc12 [Example 3, 5-(7-Methoxy-1-benzothiophen-2-yl)-7-(piperazin-1-ylmethyl)pyrrolo[2,1-f][1,2,4]triazin-4-amine] | 7.03 | 12.2% |  | 
COc1cc(Cl)cc2cc(-c3cc(CN4CCNCC4)n4ncnc(N)c34)sc12 [Example 4, 5-(5-Chloro-7-methoxy-1-benzothiophen-2-yl)-7-(piperazin-1-ylmethyl)pyrrolo[2,1-f][1,2,4]-triazin-4-amine trihydrochloride] | 7.46 | 26.2% | 7.10 | 
COc1cc(C)cc2cc(-c3cc(CN4CCNC(=O)C4(C)C)n4ncnc(N)c34)sc12 [Example 11, 4-{[4-Amino-5-(7-methoxy-5-methyl-1-benzothiophen-2-yl)pyrrolo[2,1-f][1,2,4]triazin-7-yl]-methyl}-3,3-dimethylpiperazin-2-one] | 7.02 | 27.8% | 6.84 | 
COc1cc(C)cc2cc(-c3cc(CN4CCN(C)CC4)n4ncnc(N)c34)sc12 [Example 12, 5-(7-Methoxy-5-methyl-1-benzothiophen-2-yl)-7-[(4-methylpiperazin-1-yl)methyl]pyrrole[2,1-f]-[1,2,4]triazin-4-amine bis(formiate)] | 7.41 | 11.4% |  | 
CCN1CCN(Cc2cc(-c3cc4cc(C)cc(OC)c4s3)c3c(N)ncnn23)CC1 [Example 13, 7-[(4-Ethylpiperazin-1-yl)methyl]-5-(7-methoxy-5-methyl-1-benzothiophen-2-yl)pyrrole[2,1-f]-[1,2,4]triazin-4-amine formiate] | 7.03 | 25.2% |  | 
COc1cc(C)cc2cc(-c3cc(CN4CC(O)C(NCCO)C4)n4ncnc(N)c34)sc12 (stereo not shown) [Example 21] | 7.88 | 37.6% | 8.10 | 
COc1cc(C)cc2cc(-c3cc(CN4CC5CNCC5C4)n4ncnc(N)c34)sc12 (stereo not shown) [Example 23] | 7.71 | 28.1% | 7.16 | 
COc1cc(C)cc2cc(-c3cc(CN4CCC5CN(C)CC54)n4ncnc(N)c34)sc12 (stereo not shown) [Example 24] | 7.47 | 17.3% | 6.93 | 
COc1cc(C)cc2cc(-c3cc(CN4CCN(CCO)CC4)n4ncnc(N)c34)sc12 [Example 25] | 7.13 | 10.2% |  | 
COc1cc(C)cc2cc(-c3cc(CN4CCC(N)CC4)n4ncnc(N)c34)sc12 [Example 26] | 7.08 |  | 6.89 | no inhib. effect detect.
COc1cc(C)cc2cc(-c3cc(CN4CC5CC5(N)C4)n4ncnc(N)c34)sc12 (stereo not shown) [Example 27] | 7.37 | 2.4% | 7.22 | 
CNC(=O)CNCc1cc(-c2cc3cc(C)cc(OC)c3s2)c2c(N)ncnn12 [Example 28] | 7.08 | 6.9% | 7.20 | 
CNCCNCc1cc(-c2cc3cc(C)cc(OC)c3s2)c2c(N)ncnn12 [Example 29] | 7.30 | 2.4% |  | 
COc1cc(C)cc2cc(-c3cc(CNCCNC(N)=O)n4ncnc(N)c34)sc12 [Example 30] | 7.27 | 16.2% |  | 
COc1cc(C)cc2cc(-c3cc(CNCCN)n4ncnc(N)c34)sc12 [Example 32] | 7.63 | 41.3% |  | 
COc1cc(C)cc2cc(-c3cc(CNCCNC(C)(C)C)n4ncnc(N)c34)sc12 [Example 34] | 7.00 | 4.9% |  | 
COc1cc(C)cc2cc(-c3cc(CN4CCNC(c5cccs5)C4)n4ncnc(N)c34)sc12 (stereo not shown) [Example 35] | 7.79 | 34% |  | 
CCC1CN(Cc2cc(-c3cc4cc(C)cc(OC)c4s3)c3c(N)ncnn23)CCN1 (stereo not shown) [Example 36] | 7.77 | 18.3% |  | 
COc1cc(C)cc2cc(-c3cc(CNC4CCCNC4=O)n4ncnc(N)c34)sc12 (stereo not shown) [Example 37] | 7.35 | 13.4% |  | 
COc1cc(C)cc2cc(-c3cc(CN4CCNC(C(=O)O)C4)n4ncnc(N)c34)sc12 (stereo not shown) [Example 38] | 7.34 | 11.2% |  | 
COc1cc(C)cc2cc(-c3cc(CN4CCNC(=O)C4C)n4ncnc(N)c34)sc12 (stereo not shown) [Example 39] | 7.24 | 21.4% |  | 
COc1cc(C)cc2cc(-c3cc(CNC4CCC(N)C4)n4ncnc(N)c34)sc12 (stereo not shown) [Example 40] | 7.20 | 15% |  | 
COc1cc(C)cc2cc(-c3cc(CNC4CCCN(C)C4)n4ncnc(N)c34)sc12 (stereo not shown) [Example 43] | 7.30 | 13.8% |  | 

Compound | pIC50 (human FGFR-1) | inhibition at 1 µM (human mTOR) | pIC50 (human FGFR-3) | mTOR % inhibition @ 1 μM (human mTOR; 1 μM test compound, 40 μM ATP, mean values)
COc1cc(C)cc2cc(-c3cc(CN4CC(C)NCC4C)n4ncnc(N)c34)sc12 (stereo not shown) [Example 44] | 7.41 | 10.8% |  | 
COc1cc(C)cc2cc(-c3cc(CN(C)C4CCN(C)C4)n4ncnc(N)c34)sc12 (stereo not shown) [Example 46] | 7.68 | 26.3% |  | 
COc1cc(C)cc2cc(-c3cc(CN4C[C@@H]5CCCN[C@@H]5C4)n4ncnc(N)c34)sc12 [Example 47] | 7.60 | 29% |  | 
COc1cc(C)cc2cc(-c3cc(CN4CCCNCC4)n4ncnc(N)c34)sc12 [Example 48] | 7.54 | 16.9% |  | 
COc1cc(C)cc2cc(-c3cc(CN4CCNC(C(C)(C)C)C4)n4ncnc(N)c34)sc12 (stereo not shown) [Example 49] | 7.23 | 1.3% |  | 
COc1cc(C)cc2cc(-c3cc(CN4CCN5CCCC5C4)n4ncnc(N)c34)sc12 (stereo not shown) [Example 50] | 7.23 | 3.4% |  | 
COc1cc(C)cc2cc(-c3cc(CN4CCNC(C)C4)n4ncnc(N)c34)sc12 (stereo not shown) [Example 51] | 7.38 | 0.9% |  | 
COc1cc(C)cc2cc(-c3cc(CN(C)CCCN(C)C)n4ncnc(N)c34)sc12 [Example 52] | 7.06 | 7.3% |  | 
COc1cc(C)cc2cc(-c3cc(CN4CC[C@@H](N)C4)n4ncnc(N)c34)sc12 [Example 53] | 7.03 | 12.6% | 6.84 | 
COc1cc(C)cc2cc(-c3cc(CN4CCC[C@@H](N)C4)n4ncnc(N)c34)sc12 [Example 55] | 7.79 | 24.6% | 7.73 | 
COc1cc(C)cc2cc(-c3cc(CNC(C)(C)CN4CCCC4)n4ncnc(N)c34)sc12 [Example 57] | 7.49 | 16.2% | 7.27 | 
COc1cc(C)cc2cc(-c3cc(CNCCN4CCC(O)CC4)n4ncnc(N)c34)sc12 [Example 58] | 7.44 | 12.6% | 7.33 | 
COc1cc(C)cc2cc(-c3cc(CN4CCCN(CCO)CC4)n4ncnc(N)c34)sc12 [Example 59] | 7.40 | 7% | 7.32 | 
COc1cc(C)cc2cc(-c3cc(CN4CNC(=O)C4)n4ncnc(N)c34)sc12 [Example 63] |  | 26% | 7.46 | 
COc1cc(C)cc2cc(-c3cc(CN4CCN(C(=O)C5CC5)CC4)n4ncnc(N)c34)sc12 [Example 93, (4-{[4-Amino-5-(7-methoxy-5-methyl-1-benzothiophen-2-yl)pyrrolo[2,1-f][1,2,4]triazin-7-yl]-methyl}piperazin-1-yl)(cyclopropyl)methanone] | 7.17 | 47.2% |  | 
COc1cc(C)cc2cc(-c3cc(CN4CCN(C(=O)C5CCC5)CC4)n4ncnc(N)c34)sc12 [Example 94, (4-{[4-Amino-5-(7-methoxy-5-methyl-1-benzothiophen-2-yl)pyrrolo[2,1-f][1,2,4]triazin-7-yl]-methyl}piperazin-1-yl)(cyclobutyl)methanone] | 7.17 | 44.7% |  | 
COc1cc(C)cc2cc(-c3cc(CN4CCN(C(=O)CCC(N)=O)CC4)n4ncnc(N)c34)sc12 [Example 95, 4-(4-{[4-Amino-5-(7-methoxy-5-methyl-1-benzothiophen-2-yl)pyrrolo[2,1-f][1,2,4]triazin-7-yl]-methyl}piperazin-1-yl)-4-oxobutanamide dihydrochloride] | 7.02 | 40.3% |  | 
COc1cc(C)cc2cc(-c3cc(COCCN(C)C)n4ncnc(N)c34)sc12 [Example 108, 7-{[2-(Dimethylamino)ethoxy]methyl}-5-(7-methoxy-5-methyl-1-benzothiophen-2-yl)pyrrolo-[2,1-f][1,2,4]triazin-4-amine dihydrochloride] | 7.01 | 7.1% |  | 
Nc1nccn2c(C3CCC3)nc(-c3ccc4sccc4c3)c12 [WO 2007/061737 Example 4, reference compound] |  |  | 5.62 | 
Nc1nccn2c(C3CCNCC3)nc(-c3cc4ccccc4[nH]3)c12 [WO 2007/061737 Example 25, reference compound] | 6.06 |  | 5.92 | 
Nc1nccn2c(C3CCC3)nc(-c3cc4ccccc4s3)c12 [WO 2007/061737 Example 120, reference compound] |  |  | 6.30 | 
Nc1nccn2c(C3CCN(C(=O)c4ccsc4)CC3)nc(-c3cc4ccccc4s3)c12 [WO 2007/061737 Example 157, reference compound] | 5.52 |  | 5.64 | 
Cc1c(-c2nc(C3CCN(C(=O)c4ccsc4)CC3)n3ccnc(N)c23)sc2ccccc12 [WO 2007/061737 Example 209, reference compound] | 5.55 |  | 6.10 | 
